Reference: article PMC10382584, “Macrocyclization of linear molecules by deep learning to facilitate macrocyclic drug candidates discovery” (Nature Communications, 2023)

Tests used:
Experiment in all cases: biochemical
Design in all cases: DiscoveRx KINOMEscan competition binding, percent of DMSO control signal at 100 nM
Conditions in all cases: read-out: Fig. 4a / Percent Control / Compound 1; percent of DMSO control, competition binding
ERK2 = biological target: T1, ERK2 (Homo sapiens, UniProt P28482)
T1 construct: gene MAPK1

PAK2 = PAK2 (Homo sapiens, UniProt Q13177)
Sequence of PAK2 (Q13177 whole entry): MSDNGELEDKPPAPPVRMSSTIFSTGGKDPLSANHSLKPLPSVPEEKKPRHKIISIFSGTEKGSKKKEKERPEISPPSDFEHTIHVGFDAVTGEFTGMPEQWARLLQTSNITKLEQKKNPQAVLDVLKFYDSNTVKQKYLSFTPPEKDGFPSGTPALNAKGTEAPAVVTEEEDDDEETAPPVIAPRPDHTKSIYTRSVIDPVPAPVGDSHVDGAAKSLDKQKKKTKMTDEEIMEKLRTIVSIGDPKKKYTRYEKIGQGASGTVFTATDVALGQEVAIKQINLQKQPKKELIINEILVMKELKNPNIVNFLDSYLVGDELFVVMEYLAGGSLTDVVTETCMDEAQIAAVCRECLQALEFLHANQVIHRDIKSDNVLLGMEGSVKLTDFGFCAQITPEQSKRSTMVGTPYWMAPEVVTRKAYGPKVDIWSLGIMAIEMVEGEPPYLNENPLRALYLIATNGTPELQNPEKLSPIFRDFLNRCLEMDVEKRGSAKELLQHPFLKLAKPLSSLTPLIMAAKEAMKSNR

PIK3CA(H1047L) = PIK3CA(H1047L) (Homo sapiens, UniProt P42336, H1047L)
RET(M918T) = RET(M918T) (Homo sapiens, UniProt P07949, M918T)
[1] = biological target: T2, TYK2(JH1domain-catalytic) (Homo sapiens, UniProt P29597)
T2 construct: JH1domain-catalytic
T2 sequence (P29597 whole entry): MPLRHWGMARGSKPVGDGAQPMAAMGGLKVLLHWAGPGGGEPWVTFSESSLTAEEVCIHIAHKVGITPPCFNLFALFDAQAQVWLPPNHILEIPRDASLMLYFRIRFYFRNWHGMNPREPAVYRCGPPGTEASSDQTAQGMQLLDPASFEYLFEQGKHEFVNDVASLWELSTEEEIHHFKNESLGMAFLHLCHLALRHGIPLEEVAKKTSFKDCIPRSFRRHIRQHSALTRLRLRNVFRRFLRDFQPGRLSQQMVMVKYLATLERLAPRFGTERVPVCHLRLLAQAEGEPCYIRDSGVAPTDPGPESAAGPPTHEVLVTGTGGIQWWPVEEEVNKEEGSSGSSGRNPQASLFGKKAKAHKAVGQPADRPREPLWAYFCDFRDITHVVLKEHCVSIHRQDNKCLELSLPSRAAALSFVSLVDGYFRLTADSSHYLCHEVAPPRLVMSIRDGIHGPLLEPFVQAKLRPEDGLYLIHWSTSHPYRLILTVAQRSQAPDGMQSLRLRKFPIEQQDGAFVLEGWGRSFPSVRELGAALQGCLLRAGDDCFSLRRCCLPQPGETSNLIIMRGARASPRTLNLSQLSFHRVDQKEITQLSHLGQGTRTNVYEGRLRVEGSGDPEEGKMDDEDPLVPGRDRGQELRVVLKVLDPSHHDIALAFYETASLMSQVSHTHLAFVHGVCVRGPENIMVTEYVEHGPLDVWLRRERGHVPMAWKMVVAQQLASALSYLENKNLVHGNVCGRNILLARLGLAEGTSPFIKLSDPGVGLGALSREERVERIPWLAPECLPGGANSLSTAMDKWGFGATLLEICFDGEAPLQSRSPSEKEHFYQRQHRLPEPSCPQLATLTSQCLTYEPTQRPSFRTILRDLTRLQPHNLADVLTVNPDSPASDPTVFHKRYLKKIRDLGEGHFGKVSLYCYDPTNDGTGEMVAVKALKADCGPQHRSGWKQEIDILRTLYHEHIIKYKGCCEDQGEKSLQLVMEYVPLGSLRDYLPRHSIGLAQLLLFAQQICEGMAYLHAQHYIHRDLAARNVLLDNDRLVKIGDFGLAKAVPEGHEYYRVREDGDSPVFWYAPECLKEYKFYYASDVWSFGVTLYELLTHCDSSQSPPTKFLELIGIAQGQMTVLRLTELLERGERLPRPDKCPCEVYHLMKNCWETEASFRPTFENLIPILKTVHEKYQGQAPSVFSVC

MLK2 = biological target: T3, MLK2 (Homo sapiens, UniProt Q02779)
T3 construct: gene MAP3K10
T3 sequence (Q02779 whole entry): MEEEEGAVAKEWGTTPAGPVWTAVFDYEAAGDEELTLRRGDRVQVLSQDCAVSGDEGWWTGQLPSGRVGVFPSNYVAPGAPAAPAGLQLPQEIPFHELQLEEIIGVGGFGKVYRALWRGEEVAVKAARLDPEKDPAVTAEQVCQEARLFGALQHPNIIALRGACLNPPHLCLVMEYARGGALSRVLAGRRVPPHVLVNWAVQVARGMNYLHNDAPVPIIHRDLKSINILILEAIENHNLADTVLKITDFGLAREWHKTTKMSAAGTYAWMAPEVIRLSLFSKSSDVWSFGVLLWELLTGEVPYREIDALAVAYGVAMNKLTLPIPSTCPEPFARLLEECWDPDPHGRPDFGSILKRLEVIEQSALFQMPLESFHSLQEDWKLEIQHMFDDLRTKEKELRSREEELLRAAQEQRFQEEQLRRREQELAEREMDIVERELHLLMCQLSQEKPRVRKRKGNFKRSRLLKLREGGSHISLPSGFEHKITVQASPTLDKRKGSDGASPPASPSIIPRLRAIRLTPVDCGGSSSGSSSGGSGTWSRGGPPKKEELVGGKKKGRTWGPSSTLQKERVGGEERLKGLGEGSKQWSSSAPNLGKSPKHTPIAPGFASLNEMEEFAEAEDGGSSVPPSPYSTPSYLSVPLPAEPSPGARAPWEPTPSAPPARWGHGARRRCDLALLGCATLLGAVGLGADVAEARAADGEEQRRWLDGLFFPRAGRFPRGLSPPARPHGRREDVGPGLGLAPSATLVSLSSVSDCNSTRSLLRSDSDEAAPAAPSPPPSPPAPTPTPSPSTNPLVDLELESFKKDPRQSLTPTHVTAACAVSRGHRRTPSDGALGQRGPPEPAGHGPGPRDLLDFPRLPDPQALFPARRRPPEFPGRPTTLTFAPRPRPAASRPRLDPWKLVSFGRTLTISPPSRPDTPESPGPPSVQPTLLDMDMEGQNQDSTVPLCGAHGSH

MRCKA = biological target: T4, MRCKA (Homo sapiens, UniProt Q5VT25)
T4 construct: gene CDC42BPA

MEK3 = biological target: T5, MEK3 (Homo sapiens, UniProt P46734)
T5 construct: gene MAP2K3

BIKE = biological target: T6, BIKE (Homo sapiens, UniProt Q9NSY1)
T6 construct: gene BMP2K

STK16 = STK16 (Homo sapiens, UniProt O75716)
Sequence of STK16 (O75716 whole entry): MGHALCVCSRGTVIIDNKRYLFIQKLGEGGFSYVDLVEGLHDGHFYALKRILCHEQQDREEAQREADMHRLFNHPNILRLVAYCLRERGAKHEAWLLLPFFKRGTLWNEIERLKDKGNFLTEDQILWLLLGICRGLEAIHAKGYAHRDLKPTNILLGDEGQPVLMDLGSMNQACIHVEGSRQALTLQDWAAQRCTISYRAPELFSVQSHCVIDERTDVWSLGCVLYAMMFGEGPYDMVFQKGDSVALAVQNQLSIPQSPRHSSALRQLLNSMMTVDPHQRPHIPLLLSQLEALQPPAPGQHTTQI

YES = biological target: T7, YES (Homo sapiens, UniProt P07947)
T7 construct: gene YES1

ASK2 = biological target: T8, ASK2 (Homo sapiens, UniProt O95382)
T8 construct: gene MAP3K6

FLT3(ITD) = FLT3(ITD) (Homo sapiens, UniProt P36888, ITD)
ITK = ITK (Homo sapiens, UniProt Q08881)
PIP5K2B = biological target: T9, PIP5K2B (Homo sapiens, UniProt P78356)
T9 construct: gene PIP4K2B
T9 sequence (P78356 whole entry): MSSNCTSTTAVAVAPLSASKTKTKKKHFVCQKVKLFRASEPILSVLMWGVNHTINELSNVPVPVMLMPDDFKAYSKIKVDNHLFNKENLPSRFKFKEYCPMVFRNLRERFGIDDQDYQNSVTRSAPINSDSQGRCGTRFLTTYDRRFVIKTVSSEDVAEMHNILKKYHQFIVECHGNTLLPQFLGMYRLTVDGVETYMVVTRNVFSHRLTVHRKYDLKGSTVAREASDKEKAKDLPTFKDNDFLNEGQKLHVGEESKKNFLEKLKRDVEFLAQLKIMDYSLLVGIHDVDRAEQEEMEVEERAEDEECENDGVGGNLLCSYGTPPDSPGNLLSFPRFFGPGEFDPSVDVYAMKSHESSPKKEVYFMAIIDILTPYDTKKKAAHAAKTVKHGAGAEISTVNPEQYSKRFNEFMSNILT

PRKCQ = PRKCQ (Homo sapiens, UniProt Q04759)
PFTK1 = biological target: T10, PFTK1 (Homo sapiens, UniProt O94921)
T10 construct: gene CDK14

AMPK-alpha2 = biological target: T11, AMPK-alpha2 (Homo sapiens, UniProt P54646)
T11 construct: gene PRKAA2
T11 sequence (P54646 whole entry): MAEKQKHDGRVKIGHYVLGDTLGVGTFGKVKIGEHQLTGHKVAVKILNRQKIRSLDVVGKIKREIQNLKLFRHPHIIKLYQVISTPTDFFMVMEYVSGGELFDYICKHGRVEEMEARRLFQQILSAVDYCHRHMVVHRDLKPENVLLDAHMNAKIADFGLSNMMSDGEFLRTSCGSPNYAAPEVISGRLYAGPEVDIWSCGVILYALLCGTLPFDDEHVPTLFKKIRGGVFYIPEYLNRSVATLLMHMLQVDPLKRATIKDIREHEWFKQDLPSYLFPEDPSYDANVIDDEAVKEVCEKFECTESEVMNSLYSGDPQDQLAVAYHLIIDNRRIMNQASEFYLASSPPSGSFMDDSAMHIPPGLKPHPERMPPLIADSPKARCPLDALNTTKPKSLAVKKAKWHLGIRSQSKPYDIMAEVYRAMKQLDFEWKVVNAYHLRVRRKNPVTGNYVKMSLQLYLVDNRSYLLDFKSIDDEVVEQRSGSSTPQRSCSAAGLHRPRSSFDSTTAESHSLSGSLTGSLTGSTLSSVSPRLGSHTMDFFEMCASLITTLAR

ULK3 = ULK3 (Homo sapiens, UniProt Q6PHR2)
[2] = biological target: T12, RSK2(Kin.Dom.2-C-terminal) (Homo sapiens, UniProt P51812)
T12 construct: gene RPS6KA3; Kin.Dom.2-C-terminal

FLT3(ITD,F691L) = FLT3(ITD,F691L) (Homo sapiens, UniProt P36888, F691L/ITD)
LATS1 = LATS1 (Homo sapiens, UniProt O95835)
Sequence of LATS1 (O95835 whole entry): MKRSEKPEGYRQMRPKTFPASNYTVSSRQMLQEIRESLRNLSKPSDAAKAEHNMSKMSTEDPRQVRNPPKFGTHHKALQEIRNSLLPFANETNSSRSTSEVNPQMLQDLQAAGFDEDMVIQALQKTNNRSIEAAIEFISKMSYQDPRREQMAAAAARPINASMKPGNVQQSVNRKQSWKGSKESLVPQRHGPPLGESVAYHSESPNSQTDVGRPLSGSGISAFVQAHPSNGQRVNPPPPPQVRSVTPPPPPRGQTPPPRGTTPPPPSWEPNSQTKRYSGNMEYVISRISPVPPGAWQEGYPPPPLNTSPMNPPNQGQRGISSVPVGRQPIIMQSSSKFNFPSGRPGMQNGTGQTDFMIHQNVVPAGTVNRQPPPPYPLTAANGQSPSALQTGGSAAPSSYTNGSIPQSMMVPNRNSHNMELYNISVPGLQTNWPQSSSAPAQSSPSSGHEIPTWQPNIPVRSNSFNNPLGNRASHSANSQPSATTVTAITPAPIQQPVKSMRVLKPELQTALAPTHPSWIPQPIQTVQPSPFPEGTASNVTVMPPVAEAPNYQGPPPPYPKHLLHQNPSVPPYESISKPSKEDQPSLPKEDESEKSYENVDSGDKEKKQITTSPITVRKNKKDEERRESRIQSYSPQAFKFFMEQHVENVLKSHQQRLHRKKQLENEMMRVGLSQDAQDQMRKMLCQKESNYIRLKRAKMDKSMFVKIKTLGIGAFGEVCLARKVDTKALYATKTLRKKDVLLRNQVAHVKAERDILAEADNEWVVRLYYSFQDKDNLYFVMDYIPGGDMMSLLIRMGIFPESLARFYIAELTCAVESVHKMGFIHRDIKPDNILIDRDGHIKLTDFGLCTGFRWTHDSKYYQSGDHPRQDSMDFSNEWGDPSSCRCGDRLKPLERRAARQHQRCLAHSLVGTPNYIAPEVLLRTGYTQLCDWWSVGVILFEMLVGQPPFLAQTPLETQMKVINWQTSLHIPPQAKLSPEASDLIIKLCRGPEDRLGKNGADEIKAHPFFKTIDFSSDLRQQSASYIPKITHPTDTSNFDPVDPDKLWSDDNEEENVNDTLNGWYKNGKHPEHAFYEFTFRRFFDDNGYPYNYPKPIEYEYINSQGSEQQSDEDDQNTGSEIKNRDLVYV

BMPR1B = BMPR1B (Homo sapiens, UniProt O00238)
FGFR3 = FGFR3 (Homo sapiens, UniProt P22607)
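Note: KINOMEscan kinase panel binding assay, signal normalized between DMSO as 100% and a positive control compound as 0%.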

Q: With `Cc1cnc2nc1Nc1cccc(c1)COCc1cc(ccc1OCCN1CCCC1)N2` [Compound 1] as the compound, how does the remaining binding at 0.1 µM (ERK2) read?
A: 100%

Q: What about the remaining binding at 0.1 µM (PAK2) of the same compound?
A: 100%

Q: And the remaining binding at 0.1 µM (PIK3CA(H1047L))?
A: 74%

Q: What about the remaining binding at 0.1 µM (RET(M918T)) of the same compound?
A: 96%

Q: And the remaining binding at 0.1 µM [1]?
A: 27%

Q: What about the remaining binding at 0.1 µM (MLK2) of the same compound?
A: 98%

Q: What about the remaining binding at 0.1 µM (MRCKA) of the same compound?
A: 99%

Q: And the remaining binding at 0.1 µM (MEK3)?
A: 76%

Q: What about the remaining binding at 0.1 µM (BIKE) of the same compound?
A: 47%

Q: And the remaining binding at 0.1 µM (STK16)?
A: 18%

Q: And the remaining binding at 0.1 µM (YES)?
A: 80%

Q: What about the remaining binding at 0.1 µM (ASK2) of the same compound?
A: 96%

Q: What about the remaining binding at 0.1 µM (FLT3(ITD)) of the same compound?
A: 17%

Q: And the remaining binding at 0.1 µM (ITK)?
A: 93%

Q: What about the remaining binding at 0.1 µM (PIP5K2B) of the same compound?
A: 96%

Q: What about the remaining binding at 0.1 µM (PRKCQ) of the same compound?
A: 100%

Q: And the remaining binding at 0.1 µM (PFTK1)?
A: 84%

Q: And the remaining binding at 0.1 µM (AMPK-alpha2)?
A: 97%

Q: And the remaining binding at 0.1 µM (ULK3)?
A: 85%

Q: What about the remaining binding at 0.1 µM [2] of the same compound?
A: 87%

Q: What about the remaining binding at 0.1 µM (FLT3(ITD,F691L)) of the same compound?
A: 0%

Q: And the remaining binding at 0.1 µM (LATS1)?
A: 100%

Q: And the remaining binding at 0.1 µM (BMPR1B)?
A: 63%

Q: What about the remaining binding at 0.1 µM (FGFR3) of the same compound?
A: 95%
